# Assay results taken from ChEMBL document CHEMBL5303766, “Data for DCP probe FHT-2344” (2022).
# Columns and labels:
# [1] = target: Ephrin type-A receptor 4 (Homo sapiens) (UniProt P54764); assay: EPHA4 SGC Tm panel (DSF); conditions: for ΔTm: Compound concentration 10.0 uM
# [2] = target: Sodium-dependent noradrenaline transporter (Homo sapiens, UniProt P23975); conditions: Compound concentration 10.0 uM
# [3] = target: T1, Serine/threonine-protein kinase PLK4 (Homo sapiens) (UniProt O00444); assay: PLK4 SGC Tm panel (DSF); conditions: for ΔTm: Compound concentration 10.0 uM
# T1 sequence (whole entry): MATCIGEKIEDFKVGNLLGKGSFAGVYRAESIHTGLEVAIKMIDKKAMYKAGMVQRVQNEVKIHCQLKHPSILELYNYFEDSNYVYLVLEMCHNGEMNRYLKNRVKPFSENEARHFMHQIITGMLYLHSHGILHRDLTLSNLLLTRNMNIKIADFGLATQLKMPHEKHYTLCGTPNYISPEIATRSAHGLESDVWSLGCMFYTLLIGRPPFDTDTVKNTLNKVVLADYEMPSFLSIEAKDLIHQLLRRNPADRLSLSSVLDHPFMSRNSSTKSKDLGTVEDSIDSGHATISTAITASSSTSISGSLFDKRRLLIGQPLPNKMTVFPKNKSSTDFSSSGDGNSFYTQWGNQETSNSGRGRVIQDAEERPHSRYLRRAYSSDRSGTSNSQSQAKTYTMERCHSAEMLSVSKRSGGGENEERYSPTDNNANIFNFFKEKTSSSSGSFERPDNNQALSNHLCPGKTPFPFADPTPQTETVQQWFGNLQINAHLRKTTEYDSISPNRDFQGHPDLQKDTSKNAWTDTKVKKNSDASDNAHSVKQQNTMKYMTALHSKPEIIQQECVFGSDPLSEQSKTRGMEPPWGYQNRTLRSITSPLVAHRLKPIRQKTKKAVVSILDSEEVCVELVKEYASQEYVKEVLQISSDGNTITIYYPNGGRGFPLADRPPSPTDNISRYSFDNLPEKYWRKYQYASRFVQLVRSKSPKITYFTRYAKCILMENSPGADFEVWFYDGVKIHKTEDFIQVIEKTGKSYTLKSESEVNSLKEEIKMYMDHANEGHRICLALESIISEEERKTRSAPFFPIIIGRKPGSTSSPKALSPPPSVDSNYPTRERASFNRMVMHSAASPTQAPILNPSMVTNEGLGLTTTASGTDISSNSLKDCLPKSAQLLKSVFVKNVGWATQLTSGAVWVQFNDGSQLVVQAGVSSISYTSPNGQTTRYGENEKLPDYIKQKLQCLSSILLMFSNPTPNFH
# [4] = target: Tyrosine-protein kinase ABL1 (Homo sapiens) (UniProt P00519); assay: ABL1 SGC Tm panel (DSF); conditions: for ΔTm: Compound concentration 10.0 uM
# Sequence of Tyrosine-protein kinase ABL1 (Homo sapiens) (P00519 whole entry): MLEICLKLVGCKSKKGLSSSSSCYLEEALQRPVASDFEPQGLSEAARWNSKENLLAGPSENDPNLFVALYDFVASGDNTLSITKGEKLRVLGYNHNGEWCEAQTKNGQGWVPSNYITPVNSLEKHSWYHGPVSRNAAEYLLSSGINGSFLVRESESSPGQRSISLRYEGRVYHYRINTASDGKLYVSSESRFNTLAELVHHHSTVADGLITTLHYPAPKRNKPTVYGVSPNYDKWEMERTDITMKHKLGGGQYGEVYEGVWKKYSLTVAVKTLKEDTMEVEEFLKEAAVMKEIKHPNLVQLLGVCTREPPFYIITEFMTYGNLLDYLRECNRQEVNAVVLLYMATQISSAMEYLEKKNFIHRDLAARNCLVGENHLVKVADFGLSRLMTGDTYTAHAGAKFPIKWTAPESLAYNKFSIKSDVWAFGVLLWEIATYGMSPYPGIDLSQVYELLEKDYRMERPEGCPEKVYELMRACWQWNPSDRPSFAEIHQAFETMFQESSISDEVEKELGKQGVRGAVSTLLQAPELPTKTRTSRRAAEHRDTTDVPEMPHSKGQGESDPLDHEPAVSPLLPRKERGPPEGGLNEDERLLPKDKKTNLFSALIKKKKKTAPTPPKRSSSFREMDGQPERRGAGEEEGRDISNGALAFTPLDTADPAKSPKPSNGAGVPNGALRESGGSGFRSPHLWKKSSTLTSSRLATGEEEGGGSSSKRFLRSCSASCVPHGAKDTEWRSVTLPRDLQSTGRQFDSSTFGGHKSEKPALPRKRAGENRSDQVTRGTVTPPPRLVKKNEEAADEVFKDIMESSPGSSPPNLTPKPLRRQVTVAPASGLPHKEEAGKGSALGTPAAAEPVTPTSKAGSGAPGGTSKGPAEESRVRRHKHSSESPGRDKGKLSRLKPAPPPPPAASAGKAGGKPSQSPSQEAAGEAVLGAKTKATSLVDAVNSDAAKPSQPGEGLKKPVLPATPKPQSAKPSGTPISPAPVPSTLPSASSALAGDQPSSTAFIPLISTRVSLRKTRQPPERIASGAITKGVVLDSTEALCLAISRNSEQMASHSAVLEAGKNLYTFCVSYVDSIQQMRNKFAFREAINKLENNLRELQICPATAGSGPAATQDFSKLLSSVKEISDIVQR
# Rattus norvegicus = organism: Rattus norvegicus; conditions: Compound concentration 10.0 uM
# [5] = target: T2, MAP/microtubule affinity-regulating kinase 4 (Homo sapiens) (UniProt Q96L34); assay: MARK4 SGC Tm panel (DSF); conditions: for ΔTm: Compound concentration 10.0 uM
# T2 sequence (whole entry): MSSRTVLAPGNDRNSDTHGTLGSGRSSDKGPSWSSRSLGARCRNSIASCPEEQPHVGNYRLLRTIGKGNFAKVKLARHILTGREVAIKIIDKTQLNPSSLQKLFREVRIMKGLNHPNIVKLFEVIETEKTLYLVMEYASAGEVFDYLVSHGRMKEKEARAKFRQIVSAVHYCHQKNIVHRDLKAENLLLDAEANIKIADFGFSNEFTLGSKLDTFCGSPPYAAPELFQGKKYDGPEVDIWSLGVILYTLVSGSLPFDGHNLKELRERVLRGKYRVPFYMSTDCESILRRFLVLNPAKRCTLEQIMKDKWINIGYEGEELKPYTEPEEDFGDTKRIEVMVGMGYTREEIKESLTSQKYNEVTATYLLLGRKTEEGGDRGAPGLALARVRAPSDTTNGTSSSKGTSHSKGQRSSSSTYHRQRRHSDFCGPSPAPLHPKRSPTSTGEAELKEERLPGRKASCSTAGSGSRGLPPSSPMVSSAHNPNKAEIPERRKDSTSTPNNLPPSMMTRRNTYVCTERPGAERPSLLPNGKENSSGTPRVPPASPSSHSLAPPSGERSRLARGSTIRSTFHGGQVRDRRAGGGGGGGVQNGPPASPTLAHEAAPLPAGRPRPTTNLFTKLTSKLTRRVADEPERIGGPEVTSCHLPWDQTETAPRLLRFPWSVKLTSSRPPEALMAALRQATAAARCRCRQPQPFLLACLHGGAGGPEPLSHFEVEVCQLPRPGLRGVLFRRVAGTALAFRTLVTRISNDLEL
# [6] = target: 5-hydroxytryptamine receptor 2C (Homo sapiens) (UniProt P28335); conditions: Compound concentration 10.0 uM
# Sequence of 5-hydroxytryptamine receptor 2C (Homo sapiens) (P28335 whole entry): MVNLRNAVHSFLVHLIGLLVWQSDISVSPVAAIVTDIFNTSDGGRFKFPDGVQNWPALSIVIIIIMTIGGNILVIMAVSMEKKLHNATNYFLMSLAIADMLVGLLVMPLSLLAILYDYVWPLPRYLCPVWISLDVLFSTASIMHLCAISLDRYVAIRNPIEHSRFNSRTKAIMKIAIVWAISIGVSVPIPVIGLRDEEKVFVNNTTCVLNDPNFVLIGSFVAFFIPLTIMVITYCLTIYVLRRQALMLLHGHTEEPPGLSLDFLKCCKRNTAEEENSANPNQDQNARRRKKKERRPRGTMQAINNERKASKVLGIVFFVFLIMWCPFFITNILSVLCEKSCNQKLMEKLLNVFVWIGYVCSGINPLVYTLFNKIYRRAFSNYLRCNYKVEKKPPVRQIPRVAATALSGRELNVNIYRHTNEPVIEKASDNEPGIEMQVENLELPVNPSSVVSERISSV
# [7] = target: Dual specificity protein kinase CLK3 (Homo sapiens) (UniProt P49761); assay: CLK3 SGC Tm panel (DSF); conditions: for ΔTm: Compound concentration 10.0 uM
# Sequence of Dual specificity protein kinase CLK3 (Homo sapiens) (P49761 whole entry, looked up): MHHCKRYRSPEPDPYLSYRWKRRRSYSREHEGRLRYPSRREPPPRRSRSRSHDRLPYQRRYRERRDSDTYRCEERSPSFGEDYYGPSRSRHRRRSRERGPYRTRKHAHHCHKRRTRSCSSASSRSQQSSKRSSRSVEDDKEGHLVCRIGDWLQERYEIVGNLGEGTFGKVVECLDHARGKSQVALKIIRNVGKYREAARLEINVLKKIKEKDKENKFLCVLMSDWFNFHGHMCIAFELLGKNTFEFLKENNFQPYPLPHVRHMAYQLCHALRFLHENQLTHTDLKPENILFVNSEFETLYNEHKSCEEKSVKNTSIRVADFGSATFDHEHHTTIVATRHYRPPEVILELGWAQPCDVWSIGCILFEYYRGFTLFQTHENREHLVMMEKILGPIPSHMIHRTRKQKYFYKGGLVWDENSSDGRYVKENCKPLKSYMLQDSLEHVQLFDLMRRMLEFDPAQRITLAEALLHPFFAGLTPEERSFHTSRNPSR
# [8] = target: 5-hydroxytryptamine receptor 1B (Homo sapiens) (UniProt P28222); conditions: Compound concentration 10.0 uM
# [9] = target: T3, Ribosyldihydronicotinamide dehydrogenase [quinone] (Homo sapiens) (UniProt P16083); assay: NQO2 SGC Tm panel (DSF); conditions: for ΔTm: Compound concentration 10.0 uM
# T3 sequence (whole entry): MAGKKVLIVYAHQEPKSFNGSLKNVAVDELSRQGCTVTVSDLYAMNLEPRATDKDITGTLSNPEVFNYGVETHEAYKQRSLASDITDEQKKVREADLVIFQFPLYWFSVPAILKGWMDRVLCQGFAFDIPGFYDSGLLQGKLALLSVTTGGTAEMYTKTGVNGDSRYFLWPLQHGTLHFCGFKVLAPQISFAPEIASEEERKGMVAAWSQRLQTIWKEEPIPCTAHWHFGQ
# [10] = target: GABA-A receptor; anion channel (Rattus norvegicus) (UniProt O09028+P15431+P18506+P18508+P19969+P20236+P23574+P23576+P28471+P28473+P30191+P62813+P63079+P63138+Q91ZM7+Q9ES14); conditions: Compound concentration 10.0 uM
# [11] = target: MAP/microtubule affinity-regulating kinase 3 (Homo sapiens) (UniProt P27448); assay: MARK3 SGC Tm panel (DSF); conditions: for ΔTm: Compound concentration 10.0 uM
# Sequence of MAP/microtubule affinity-regulating kinase 3 (Homo sapiens) (P27448 whole entry, looked up): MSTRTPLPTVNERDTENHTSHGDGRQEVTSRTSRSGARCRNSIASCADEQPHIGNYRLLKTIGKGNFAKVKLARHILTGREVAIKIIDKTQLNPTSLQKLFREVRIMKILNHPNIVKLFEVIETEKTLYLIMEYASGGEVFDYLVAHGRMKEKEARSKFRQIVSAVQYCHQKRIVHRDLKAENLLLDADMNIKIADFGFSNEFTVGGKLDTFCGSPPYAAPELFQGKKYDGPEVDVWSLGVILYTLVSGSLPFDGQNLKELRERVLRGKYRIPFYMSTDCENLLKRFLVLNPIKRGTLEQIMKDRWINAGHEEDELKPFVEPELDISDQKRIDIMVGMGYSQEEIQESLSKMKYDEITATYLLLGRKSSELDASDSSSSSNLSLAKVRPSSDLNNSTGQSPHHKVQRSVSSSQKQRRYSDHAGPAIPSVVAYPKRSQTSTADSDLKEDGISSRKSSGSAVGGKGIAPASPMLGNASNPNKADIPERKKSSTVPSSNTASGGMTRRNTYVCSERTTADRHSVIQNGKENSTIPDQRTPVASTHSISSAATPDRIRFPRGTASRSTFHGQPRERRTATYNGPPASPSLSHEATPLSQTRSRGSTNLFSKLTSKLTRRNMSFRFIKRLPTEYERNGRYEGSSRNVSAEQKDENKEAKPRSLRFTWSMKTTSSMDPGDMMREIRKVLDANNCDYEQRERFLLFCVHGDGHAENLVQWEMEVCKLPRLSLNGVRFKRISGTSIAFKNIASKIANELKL
# [12] = target: Serine/threonine-protein kinase Chk2 (Homo sapiens) (UniProt O96017); assay: CHEK2 SGC Tm panel (DSF); conditions: for ΔTm: Compound concentration 10.0 uM
# Sequence of Serine/threonine-protein kinase Chk2 (Homo sapiens) (O96017 whole entry): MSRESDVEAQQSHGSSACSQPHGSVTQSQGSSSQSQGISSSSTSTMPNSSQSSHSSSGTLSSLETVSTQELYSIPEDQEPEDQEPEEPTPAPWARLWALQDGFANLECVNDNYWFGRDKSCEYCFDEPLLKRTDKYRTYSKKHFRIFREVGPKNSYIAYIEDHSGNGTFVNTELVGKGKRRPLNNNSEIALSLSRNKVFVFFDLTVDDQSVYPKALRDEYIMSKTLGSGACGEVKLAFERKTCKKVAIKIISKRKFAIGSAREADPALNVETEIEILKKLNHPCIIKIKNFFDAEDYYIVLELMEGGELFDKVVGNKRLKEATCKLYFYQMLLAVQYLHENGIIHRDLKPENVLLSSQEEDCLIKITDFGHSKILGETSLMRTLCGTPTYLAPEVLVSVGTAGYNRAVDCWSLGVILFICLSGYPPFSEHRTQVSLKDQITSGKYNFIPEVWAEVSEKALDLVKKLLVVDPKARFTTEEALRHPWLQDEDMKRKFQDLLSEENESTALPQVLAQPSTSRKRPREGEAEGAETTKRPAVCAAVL
# Sequence of Ephrin type-A receptor 4 (Homo sapiens) (P54764 whole entry): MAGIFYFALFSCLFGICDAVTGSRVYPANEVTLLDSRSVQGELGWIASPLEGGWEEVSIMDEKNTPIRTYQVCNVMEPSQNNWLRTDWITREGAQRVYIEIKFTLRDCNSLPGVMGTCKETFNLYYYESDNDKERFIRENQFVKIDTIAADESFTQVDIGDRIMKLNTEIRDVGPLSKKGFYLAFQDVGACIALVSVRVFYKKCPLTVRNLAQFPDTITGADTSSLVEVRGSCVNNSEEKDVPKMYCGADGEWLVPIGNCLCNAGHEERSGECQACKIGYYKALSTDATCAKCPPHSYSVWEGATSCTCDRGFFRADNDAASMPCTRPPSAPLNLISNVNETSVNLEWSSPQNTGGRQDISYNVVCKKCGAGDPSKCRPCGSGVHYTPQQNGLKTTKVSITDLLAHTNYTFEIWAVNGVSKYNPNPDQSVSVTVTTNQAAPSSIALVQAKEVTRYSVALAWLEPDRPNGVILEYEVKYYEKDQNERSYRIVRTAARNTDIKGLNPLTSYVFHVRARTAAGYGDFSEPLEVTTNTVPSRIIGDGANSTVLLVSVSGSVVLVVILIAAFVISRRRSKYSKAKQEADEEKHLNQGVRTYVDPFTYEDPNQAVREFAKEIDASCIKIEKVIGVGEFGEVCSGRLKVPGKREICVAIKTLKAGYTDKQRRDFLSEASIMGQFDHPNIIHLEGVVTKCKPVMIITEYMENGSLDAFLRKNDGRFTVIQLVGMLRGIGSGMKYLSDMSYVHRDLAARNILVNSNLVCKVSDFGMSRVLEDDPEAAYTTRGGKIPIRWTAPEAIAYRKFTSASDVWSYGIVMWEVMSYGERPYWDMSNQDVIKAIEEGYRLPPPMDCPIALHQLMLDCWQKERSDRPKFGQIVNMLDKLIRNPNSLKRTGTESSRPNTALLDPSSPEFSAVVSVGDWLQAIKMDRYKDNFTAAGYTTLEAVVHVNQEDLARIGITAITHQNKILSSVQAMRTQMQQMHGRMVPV
# Sequence of Sodium-dependent noradrenaline transporter (P23975 whole entry): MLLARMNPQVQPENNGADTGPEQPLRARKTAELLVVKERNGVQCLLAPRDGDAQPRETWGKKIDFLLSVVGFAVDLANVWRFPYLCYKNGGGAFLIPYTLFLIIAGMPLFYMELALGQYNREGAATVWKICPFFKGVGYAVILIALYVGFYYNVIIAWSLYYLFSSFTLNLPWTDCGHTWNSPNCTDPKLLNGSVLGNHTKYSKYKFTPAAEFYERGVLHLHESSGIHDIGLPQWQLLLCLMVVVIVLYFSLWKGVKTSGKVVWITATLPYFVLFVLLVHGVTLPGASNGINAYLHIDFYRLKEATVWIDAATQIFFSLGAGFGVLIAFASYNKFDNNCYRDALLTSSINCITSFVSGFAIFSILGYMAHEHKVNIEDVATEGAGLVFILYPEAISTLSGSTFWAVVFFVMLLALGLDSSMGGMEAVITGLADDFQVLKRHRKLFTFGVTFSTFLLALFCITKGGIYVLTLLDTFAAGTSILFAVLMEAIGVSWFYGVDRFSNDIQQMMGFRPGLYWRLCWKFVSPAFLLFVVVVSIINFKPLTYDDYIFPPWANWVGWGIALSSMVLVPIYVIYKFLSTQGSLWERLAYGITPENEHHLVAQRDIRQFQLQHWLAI
delta Tm Staurosporine positive control [1],ΔTm [1],inhibition [2] [%],delta Tm Staurosporine positive control [3],ΔTm [3],delta Tm Staurosporine positive control [4],ΔTm [4],inhibition (Rattus norvegicus) [%],delta Tm Staurosporine positive control [5],ΔTm [5],inhibition [6] [%],delta Tm Staurosporine positive control [7],ΔTm [7],inhibition [8] [%],delta Tm Staurosporine positive control [9],ΔTm [9],inhibition [10] [%],delta Tm Staurosporine positive control [11],ΔTm [11],delta Tm Staurosporine positive control [12],SMILES,also measured
6.89,1.22,69.8,19.9,0.729,8.26,0.15,64.6,15.8,0.462,18.3,4.89,-0.347,27.4,-2.91,-0.586,31.5,19.1,1.73,16.7,C[C@H](NC(=O)c1cn(C2(C#N)CC2)cn1)C(=O)Nc1nc(-c2cccc(-c3ccn(C)n3)c2)cs1,ΔTm [12]: -1.06
6.89,1.06,45.5,19.9,0.546,8.26,0.39,47.5,15.8,0.492,14.2,4.89,-0.362,17.6,-2.91,-0.772,16,19.1,1.12,16.7,COC[C@H](NC(=O)c1ccn(S(C)(=O)=O)c1)C(=O)Nc1nc(-c2cccc(-c3ccn(C)n3)c2)cs1,ΔTm [12]: -0.718
